Each block holds one molecule with its values, some of them ahead of it.
Assays:
[1] = Ability to trap the DPPH radical; details: 5 μg/mL
Description: PRINCIPLE: This method is based on the reduction of an alcoholic solution of the stable form of the DPPH. radical in the presence of an antioxidant donor of hydrogen (AH), which leads to the formation of a non-radical form DPPH-H. This reduction causes a color change from violet to yellow which could be studied at 517 nm. The faster the color change occurs, the more the donor is considered as a strong antioxidant. PROTOCOL: 50 μL of different concentrations of each extract was added to 1.950 mL of freshly prepared methanolic DPPH. […] After incubation for 30 minutes in the dark and at room temperature, the absorbance was read at 517 nm. Methanol was used as control and ascorbic acid was used as standard. The ability to trap DPPH^· was expressed in percentage inhibition as calculated using the following equation: [formula] The inhibitory concentrations 50 (IC50) were later determined by extrapolating after drawing curves of percentage inhibition against concentration. All samples were analyzed in triplicates. I.4.3. Evaluation of DPPH^· Anti-Radical Activity of Rough Extract Fractions This activity was evaluated using the protocol of Sanchez-Moreno et al. (1998) as described earlier.

[2] = test system: lipid peroxidation induced in brain homogenates; experiment: Inhibition of FeSO4-induced lipid peroxidation in brain homogenates; type: biochemical, Wistar rats
Text: I.2.3 Inhibitory Activity of Lipid Peroxide in Nitro (Prasanth et al., 2000)
PRINCIPLE: Lipid peroxidation refers to the oxidative degradation of lipids which provoke a continuous increase in the permeability of cell membranes, inducing an irreversible alteration of the functional properties of the cell which could eventually lead to cytolysis. It is a radical chain reaction in which a free radical cleaves a hydrogen atom from membrane lipids in order to form a conjugated diene radical, which is oxidized to a peroxyl that in turn generates other radical reactions leading to the formation of terminal products such as MDA. Iron can stimulate lipid peroxidation either by Fenton reaction or by acceleration of peroxidation through the decomposition of lipid hydroperoxides into peroxyl or alkoxyl radicals; themselves capable of cleaving a hydrogen and perpetrating lipid peroxidation. The MDA from this reaction reacts with TBA to give pink colored chromophores which absorb at 532 nm. […]
The lipid peroxidation test was conducted as follows: 300 μL of plant extract at different concentrations and distilled water (control) were added to 500 μL of each homogenate. […] The absorbance was read at 532 nm. […] The IC50 were determined by extrapolating after drawing curves of lipid peroxidation percentage inhibition against the concentrations of plant extracts.

[3] = test system: Aluminum chloride induced neurotoxicity in Wistar rats; experiment: Aluminum chloride treated rats: plasma transaminases ASAT (GOT) and ALAT (GPT), hepatic toxicity; type: in vivo
Description: (§1) [formula] I.3. Evaluation of Neuro-Protective Effects of the Hydro-Ethanolic Extract of B. toxisperma Against Aluminum Chloride Induced Neurotoxicity (Animal Model of Neurotoxicity)
(§2) Twenty albinos Wistar rats weighing between 230-250 g were used for this experiment in which the treatment lasted 3 days. The experimentation was conducted in the animal house of the Laboratory of Nutrition and Nutritional Biochemistry of the department of Biochemistry (Faculty of Science, University of Yaounde I). Animals were fed with standard feed and drinking water ad libitum.
(§3) Rats were divided into 5 groups of 4 rats each. A unique dose of 32.5 mg/kg BW of aluminum trichloride (AlCl3) was administered by intra peritoneal (i.p) route. 24 hours later, different doses of plant extract and vitamin E (reference) were administered by oral route, using a gastro-oesophagian probe once a day for 3 days.
24 hours after the last administration, animals were sacrificed under mild anesthesia in Ether vapor following a 12 hours fasting. The rats' bloods were collected in EDTA tubes. Cervical dislocations were performed immediately after blood collections, to remove the brains which were then rinsed in physiologic solution (0.9% NaCl) and weighed. Plasmas were extracted from the bloods collected and the brains were used to prepare 10% homogenates which served for biochemical analysis.
The blood in EDTA tubes were allowed to stand at room temperature, then centrifuged for 10 minutes at 900 revs/minute, the resulting liquid phase (plasma) was then collected into Eppendorf tubes and stored at −20° C.
1.3.3.3.1. Evaluation of the Activities of the Oxaloglutamate (GOT) and Glutamo-Pyruvate (GPT) Transaminases (Reitman et Franckel, 1957) (Hepatic Toxicity) […]
PROTOCOL: EVALUATION DE L′ACTIVITÉ DE L′ASAT (GOT): 100 μL of substrate solution (annex 3e) were put into tubes, pre-incubated at 37° C. for 5 minutes then 0.02 mL of plasma was added. […] Optical densities were read at 505 nm against a blank (made up of 100 μL of substrate solution and 0.02 mL of NaCl 0.9%) titrated under similar conditions. […]

[4] = Ability to trap the hydroxyl radical (deoxyribose oxidation, Fenton reaction)
Text: I.2.3 Ability to Trap the Hydroxyl (^·OH) Radical (Halliwell et al., 1987)
PRINCIPLE: The […] capacity of plant extracts to trap the hydroxyl radical is based on the Fenton reaction, by measuring the production of ·OH radical and its effect on the oxidation and degradation bio-molecules such as deoxyribose in DNA. The system in this technique involves an auto-oxidation of the Fe^2+-EDTA complex in an aqueous medium to form the superoxide (O2^−·) anion which is rapidly dismutated into H2O2 at a pH of 7.4. The latter then reacts with Fe^2+ form ^·OH radicals in the presence of ascorbic acid which acts as catalyst (Fenton reaction). […]
PROTOCOL: The reaction mixture contained the following reagents: 0.4 mL of phosphate buffer (50 mmol/L, pH=7.4), 0.1 mL of different concentrations of the extract, 0.1 mL of EDTA (1.04 mmol/L), 0.1 mL of FeCl3 (1 mmol/L) and 0.1 mL 2-deoxyribose (60 mmol/L). the reaction was initiated by adding 0.1 mL of ascorbic acid (2 mmol/L) and 0.1 mL of H2O2 (10 mmol/L). after incubating for 1 hour at 37° C., 1 mL of TBA (10 g/L) were added into the reaction medium followed by 1 mL of HCl (25% v/v). […] The absorbance was then read at 532 nm. The capacity of extracts to trap the hydroxyl radical was expressed as percentage inhibition of the oxidation of 2-deoxyribose based on the following formula: […]

[5] = test system: Aluminum chloride induced neurotoxicity in Wistar rats; experiment: Aluminum chloride induced neurotoxicity in rats: catalase activity in brain; type: in vivo
Description: as §1, §2
(§4) Rats were divided into 5 groups of 4 rats each. A unique dose of 32.5 mg/kg BW of aluminum trichloride (AlCl3) was administered by intra peritoneal (i.p) route. […]
(§5) PROTOCOL: The assay tubes contained 100 μL of homogenate or plasma or ovalbumin (caliber) and 3 mL of Biuret's reagent (annex 3c). […] The optical densities were read at 540 nm against a blank which contained 3 mL of reagent solution and 100 μL of NaCl 0.9% incubated under similar conditions. The total protein concentration was determined from the following equation: […]
PRINCIPLE: This method is based on the fact that the catalase present in hemolysates or homogenates reduces hydrogen peroxide (H2O2) to water (H2O) and oxygen (O2). […] Catalase activity is proportional to the optical density and is determined by use of a calibration curve. […]

[6] = test system: Aluminum chloride induced neurotoxicity in Wistar rats; experiment: Aluminum chloride induced neurotoxicity in rats: MDA in brain; type: in vivo
Description: as §1, §2, §4
PROTOCOL: 100 μL of homogenate and 400 μL of TBA reagent (annex 3b) were introduced into glass test tubes (blank and assay) which were tightly corked. […] The tubes were later opened for any gas to evaporate before centrifugation for 5 minutes at 1500 revs/minute and the absorbance of the liquid phase was read at 532 nm against a blank which contained 400 μL of reagent solution and 100 μL of NaCl 0.9% incubated in similar conditions. The concentration of MDA was determined using it molar extinction coefficient (ε=1.53×10^5 M^−1·cm^−1) and the following formula.

[7] = test system: Aluminum chloride induced neurotoxicity in Wistar rats; experiment: Aluminum chloride treated rats: plasma creatinine, renal toxicity; type: in vivo
Description: as §1, §2, §3
24 hours after the last administration, animals were sacrificed under mild anesthesia in Ether vapor following a 12 hours fasting. […]
PROTOCOL: 1 mL of working solution (annex 3f) was placed into test tubes and 0.1 mL of plasma and caliber added respectively to assay and blank tubes. Tubes were agitated and their optical densities read 520 nm against a blank; within the 20 seconds that followed the stabilization of the mixture. […] The concentration of creatinine was determined from the following equation: […]

[8] = test system: Aluminum chloride induced neurotoxicity in Wistar rats; experiment: Aluminum chloride induced neurotoxicity in rats: thiol proteins in brain; type: in vivo; details: brain of rats; AlCl3 32.5 mg/kg i.p.; Vit E 100 mg/kg BW/day (VE100)
Description: as §1, §2
Rats were divided into 5 groups of 4 rats each. […]
as §5
PROTOCOL: 100 μL of homogenate and 900 μL of Ellman's reagent (annex 3d) were added into the assay tubes, homogenized and incubated at room temperature for 30 minutes before reading the optical densities at 412 nm against a blank which contained 900 μL the reagent solution and 100 μL of NaCl 0.9% incubated under similar conditions as the assay. […] Results were expressed as μmol/g of total proteins.

[9] = HEEBT 150 and 300 mg/kg BW, vitamin E
[10] = plasma, AlCl3 32.5 mg/kg i.p., Vit E 100 mg/kg BW/day (VE100)
[11] = HEEBT 150 and 300 mg/kg BW, vitamin E, p<0.05

Molecule: O=C1O[C@H]([C@@H](O)CO)C(O)=C1O [Vitamin C, ascorbic acid]
% inhibition of DPPH radical [1]: 54%

IC50 for lipid peroxidation induced in the brain [2]: 0.574 mg/mL
IC50 ·OH scavenging activity [4]: 25.3 mg/mL
Molecule: Vitamin E
percentage inhibition of lipid peroxidation in brain homogenates ([2]; 1000 m/mL): 60.427%
effect on activities of plasma transaminases after aluminum [3, 9]: tend to normalize
ALAT [3, 10]: 60.135 ± 7.453 unité d'ALAT/mL
ASAT [3, 10]: 76.363 ± 1.868 unité d'ASAT/mL
effect on catalase activity compared with the PC group [5, 11]: significantly (p<0.05) restore
Catalase ([5]; brain of rats, AlCl3 32.5 mg/kg i.p., Vit E 100 mg/kg BW/day (VE100)): 0.030 ± 0.003 mM H2O2/min/mg of proteins
effect on MDA level in rats compared with the positive control (PC) [6, 11]: significantly (p<0.05) reduced
MDA ([6]; brain of rats, AlCl3 32.5 mg/kg i.p., Vit E 100 mg/kg BW/day oral, 3 days (VE100)): 4.631 ± 0.652 µM
effect on plasma creatinine after aluminum [7, 9]: tend to normalize
Créatinine [7, 10]: 2.297 ± 0.181 mg/dL
Thiols proteins [8]: 0.299 ± 0.071 μg/mg of proteins

Source: patent publication US11684646B2, “Methods and related compositions for reducing oxidative stress” (Gateway Health Alliances, Inc., priority 2019, dated 2023)
